{"source": "ChEMBL document CHEMBL5537110", "about": "“SIRT1-dependent mitochondrial biogenesis supports therapeutic effects of 4-butyl-polyhydroxybenzophenone compounds against NAFLD” (Eur J Med Chem, 2023)", "key": {"[1]": {"tested_on": "HepG2", "test": "Recovery of mitochondrial biogenesis in 40% FBS-induced steatosis human HepG2 cells model assessed as increase in SIRT1 protein expression incubated for 24 hrs by western blot analysis", "format": "functional, cell-based", "details": "dose 0.2-5 µM"}, "[2]": {"biological_target": "T1, NAD-dependent protein deacetylase sirtuin-1 (Homo sapiens) (UniProt Q96EB6)", "T1 sequence (whole entry)": "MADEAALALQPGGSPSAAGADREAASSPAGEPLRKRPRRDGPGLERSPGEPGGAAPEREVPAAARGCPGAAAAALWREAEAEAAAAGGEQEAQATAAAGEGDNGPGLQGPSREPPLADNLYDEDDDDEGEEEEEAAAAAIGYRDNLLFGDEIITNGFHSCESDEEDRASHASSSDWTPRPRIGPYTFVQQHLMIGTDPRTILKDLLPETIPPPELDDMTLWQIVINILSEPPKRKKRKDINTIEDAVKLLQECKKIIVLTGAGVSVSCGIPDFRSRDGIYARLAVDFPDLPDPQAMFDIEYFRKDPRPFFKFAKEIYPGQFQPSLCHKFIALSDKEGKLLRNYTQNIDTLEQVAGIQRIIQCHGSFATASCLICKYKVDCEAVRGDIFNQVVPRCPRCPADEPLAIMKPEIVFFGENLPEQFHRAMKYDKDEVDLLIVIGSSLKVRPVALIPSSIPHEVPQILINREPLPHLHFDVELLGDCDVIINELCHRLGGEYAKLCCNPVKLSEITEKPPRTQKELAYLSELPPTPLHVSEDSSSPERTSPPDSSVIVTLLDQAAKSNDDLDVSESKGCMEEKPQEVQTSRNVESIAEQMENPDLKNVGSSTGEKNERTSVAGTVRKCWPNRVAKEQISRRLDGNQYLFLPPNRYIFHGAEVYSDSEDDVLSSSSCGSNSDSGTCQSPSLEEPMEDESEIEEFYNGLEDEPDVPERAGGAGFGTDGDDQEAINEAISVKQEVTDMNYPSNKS", "test": "Binding affinity to SIRT1 in human HepG2 cells assessed as increase in protein abundance at 80 to 320 uM pretreated with compound for 30 mins followed by proteolysis for 15 mins by DARTS assay", "format": "cell-based", "details": "filed as activator, dose 80-320 µM, time 45.0 min"}, "[3]": {"tested_on": "EA.hy 926", "test": "Cytoprotective activity against H2O2-induced toxicity in human EA.hy 926 cells assessed as protective rate pretreated with compound for 4 hrs followed by incubation with H2O2 for 2 hrs by absorbance based analysis", "format": "functional, cell-based"}, "[4]": {"tested_on": "HepG2", "test": "Inhibition of lipid toxicity in 40% FBS-induced steatosis human HepG2 cells model assessed as decrease in triglyceride content at 0.2 to 5 uM incubated in steatosis inducing DMEM with 40% FBS medium for 24 hrs followed by compound treatment", "format": "functional, cell-based", "details": "dose 0.2-5 µM"}, "[5]": {"tested_on": "HepG2", "test": "Induction of mitochondrial biogenesis in human HepG2 cells assessed as NRF1 mRNA expression incubated for 24 hrs in presence of SIRT1 inhibitor, EX527 by qRT-PCR analysis", "format": "functional, cell-based"}, "[6]": {"tested_on": "Rattus norvegicus", "test": "Hepatoprotective activity against high fat diet-fed NAFLD Sprague-Dawley rat model assessed as inhibition of diet-induced body weight gain administered intragastrically via gavage for 4 weeks", "format": "functional, organism-based", "details": "dose 12.3-61.4 mg/kg, route ig"}, "[7]": {"tested_on": "HepG2", "test": "Recovery of mitochondrial biogenesis in 40% FBS-induced steatosis human HepG2 cells model assessed as increase in mitochondrial COX1 mRNA expression incubated for 24 hrs by qRT-PCR analysis", "format": "functional, cell-based", "details": "dose 0.2-5 µM"}, "[8]": {"tested_on": "HepG2", "test": "Inhibition of oxidative stress in 40% FBS-induced steatosis human HepG2 cells model assessed as reduction in mitochondrial ROS production incubated in steatosis inducing DMEM with 40% FBS medium for 24 hrs followed by compound treatment by MitoSOX Red dye based fluorescence microscopy", "format": "functional, cell-based", "details": "Mitochondria, dose 0.2-5 µM"}, "[9]": {"tested_on": "HepG2", "test": "Inhibition of liver injury in 40% FBS-induced steatosis human HepG2 cells model assessed as decrease in LDH level at 0.2 to 5 uM incubated with compound for 24 hrs followed by replacement with steatosis inducing DMEM with 40% FBS medium", "format": "functional, cell-based", "details": "dose 0.2-5 µM"}, "[10]": {"tested_on": "HepG2", "test": "Inhibition of liver injury in 40% FBS-induced steatosis human HepG2 cells model assessed as decrease in GDH level at 0.2 to 5 uM incubated in steatosis inducing DMEM with 40% FBS medium for 24 hrs followed by compound treatment", "format": "functional, cell-based", "details": "dose 0.2-5 µM"}, "[11]": {"tested_on": "HepG2", "test": "Recovery of energy production in 40% FBS-induced steatosis human HepG2 cells model assessed as upregulation of mitochondrial ATP production incubated in steatosis inducing DMEM with 40% FBS medium for 24 hrs followed by compound treatment by luciferase based assay", "format": "functional, cell-based", "details": "Mitochondria, dose 0.2-5 µM"}, "[12]": {"tested_on": "HepG2", "test": "Recovery of mitochondrial activity in 40% FBS-induced steatosis human HepG2 cells model assessed as increase in number of mitochondria incubated in steatosis inducing DMEM with 40% FBS medium for 24 hrs followed by compound treatment by MitoTracker Green based fluorescence analysis", "format": "functional, cell-based", "details": "dose 0.2-5 µM"}, "[13]": {"tested_on": "HepG2", "test": "Induction of mitochondrial biogenesis in human HepG2 cells assessed as PGC1alpha protein expression incubated for 24 hrs in presence of SIRT1 inhibitor, EX527 by western blot analysis", "format": "functional, cell-based"}, "[14]": {"tested_on": "EA.hy 926", "test": "Cytoprotective activity against H2O2-induced toxicity in human EA.hy 926 cells assessed as protective rate at 10 uM pretreated with compound for 4 hrs followed by incubation with H2O2 for 2 hrs by absorbance based analysis", "format": "functional", "details": "time 6 hrs"}, "[15]": {"tested_on": "HepG2", "test": "Inhibition of liver injury in 40% FBS-induced steatosis human HepG2 cells model assessed as decrease in AST level at 0.2 to 5 uM incubated with compound for 24 hrs followed by replacement with steatosis inducing DMEM with 40% FBS medium", "format": "functional, cell-based", "details": "dose 0.2-5 µM"}, "[16]": {"tested_on": "Rattus norvegicus", "test": "Hepatoprotective activity against high fat diet-fed NAFLD Sprague-Dawley rat model assessed as decrease in serum AKP level administered intragastrically via gavage for 4 weeks", "format": "functional, organism-based", "details": "dose 12.3-61.4 mg/kg, route ig"}, "[17]": {"tested_on": "HepG2", "test": "Inhibition of liver injury in human HepG2 cells assessed as increase in liver protection index by measuring increase in ratio of GSH to GSSG at 0.2 to 5 uM incubated with compound for 24 hrs followed by replacement with steatosis inducing DMEM with 40% FBS medium", "format": "functional, cell-based", "details": "dose 0.2-5 µM"}, "[18]": {"tested_on": "Rattus norvegicus", "test": "Hepatoprotective activity against high fat diet-fed NAFLD Sprague-Dawley rat model assessed as increase in serum SOD level administered intragastrically via gavage for 4 weeks", "format": "functional, organism-based", "details": "dose 12.3-61.4 mg/kg, route ig"}, "[19]": {"tested_on": "Rattus norvegicus", "test": "Hepatoprotective activity against high fat diet-fed NAFLD Sprague-Dawley rat model assessed as decrease in liver index administered intragastrically via gavage for 4 weeks", "format": "functional, organism-based", "details": "dose 12.3-61.4 mg/kg, route ig"}, "[20]": {"tested_on": "HepG2", "test": "Recovery of mitochondrial biogenesis in 40% FBS-induced steatosis human HepG2 cells model assessed as increase in mitochondrial ND6 mRNA expression incubated for 24 hrs by qRT-PCR analysis", "format": "functional, cell-based", "details": "dose 0.2-5 µM"}, "[21]": {"tested_on": "Rattus norvegicus", "test": "Hepatoprotective activity against high fat diet-fed NAFLD Sprague-Dawley rat model assessed as decrease in serum GDH level administered intragastrically via gavage for 4 weeks", "format": "functional, organism-based", "details": "dose 12.3-61.4 mg/kg, route ig"}, "[22]": {"tested_on": "HepG2", "test": "Inhibition of mitochondrial membrane potential dissipation in 40% FBS-induced steatosis human HepG2 cells model assessed as increase in mitochondrial membrane potential incubated in steatosis inducing DMEM with 40% FBS medium for 24 hrs followed by compound treatment by JC-1 staining based fluorescence microscopy", "format": "functional, cell-based", "details": "Mitochondria, dose 0.2-5 µM"}, "[23]": {"tested_on": "HepG2", "test": "Induction of mitochondrial biogenesis in human HepG2 cells assessed as TFAM protein expression incubated for 24 hrs in presence of SIRT1 inhibitor, EX527 by western blot analysis", "format": "functional, cell-based"}, "[24]": {"tested_on": "HepG2", "test": "Induction of mitochondrial biogenesis in human HepG2 cells assessed as mitochondrial ND6 mRNA expression incubated for 24 hrs in presence of SIRT1 inhibitor, EX527 by qRT-PCR analysis", "format": "functional, cell-based"}}, "note": "Active and inactive are the calls of the source. No cut-off for these calls is given here."}
{"smiles": "CC(C)(C)c1ccc(C(=O)c2ccc(O)c(O)c2)cc1", "values": [{"measurement": "Activity", "setting": "[1]", "value": "Dose-Dependent Effect"}, {"measurement": "Activity", "setting": "[2]", "value": "Active"}, {"measurement": "EC50", "setting": "[3]", "value": 72.3, "unit": "nM"}, {"measurement": "inhibition", "setting": "[4]", "value": "Active"}, {"measurement": "Activity", "setting": "[5]", "value": "inactive"}, {"measurement": "Activity", "setting": "[6]", "value": "Dose-Dependent Effect"}, {"measurement": "Activity", "setting": "[7]", "value": "Dose-Dependent Effect"}, {"measurement": "inhibition", "setting": "[8]", "value": "Dose-Dependent Effect"}, {"measurement": "inhibition", "setting": "[9]", "value": "Active"}, {"measurement": "inhibition", "setting": "[10]", "value": "Active"}, {"measurement": "Activity", "setting": "[11]", "value": "Dose-Dependent Effect"}, {"measurement": "Activity", "setting": "[12]", "value": "Dose-Dependent Effect"}, {"measurement": "Activity", "setting": "[13]", "value": "inactive"}, {"measurement": "Activity", "setting": "[14]", "value": 87.46, "unit": "%"}, {"measurement": "inhibition", "setting": "[15]", "value": "Active"}, {"measurement": "Activity", "setting": "[16]", "value": "Active"}, {"measurement": "inhibition", "setting": "[17]", "value": "Active"}, {"measurement": "Activity", "setting": "[18]", "value": "Active"}, {"measurement": "Activity", "setting": "[19]", "value": "Dose-Dependent Effect"}, {"measurement": "Activity", "setting": "[20]", "value": "Dose-Dependent Effect"}, {"measurement": "Activity", "setting": "[21]", "value": "Active"}, {"measurement": "inhibition", "setting": "[22]", "value": "Dose-Dependent Effect"}, {"measurement": "Activity", "setting": "[23]", "value": "inactive"}, {"measurement": "Activity", "setting": "[24]", "value": "inactive"}]}
